Results taken from article PMC11460214 (RSC Advances, 2024).

Target: T1, dihydrofolate reductase (Homo sapiens, UniProt P00374)
T1 sequence (P00374 1-187): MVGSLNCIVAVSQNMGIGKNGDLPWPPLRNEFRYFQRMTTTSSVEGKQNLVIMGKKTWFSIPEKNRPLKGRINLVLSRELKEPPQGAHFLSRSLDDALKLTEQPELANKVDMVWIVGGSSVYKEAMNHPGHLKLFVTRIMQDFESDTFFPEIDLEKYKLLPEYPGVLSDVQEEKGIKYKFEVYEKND
Assay: Dihydrofolate reductase enzyme inhibition assay
Type: biochemical
Conditions: for inhibition at 500 µM: read-out: % inhibition (0.5 mM)

| SMILES | IC50 [µM] | inhibition at 500 µM [%] |
| --- | --- | --- |
| Fc1ccc(NC(=S)NN=Cc2ccc(N3CCCC3)cc2)cc1 [Compound 5b, N-(4-Fluorophenyl)-2-[4-(pyrrolidin-1-yl)benzylidene]hydrazinecarbothioamide] | 33.1 ± 0.71 | 80.6 |
| S=C(NN=Cc1ccc(N2CCCC2)cc1)Nc1cccc(Cl)c1Cl [Compound 5c, N-(2,3-Dichlorophenyl)-2-[4-(pyrrolidin-1-yl)benzylidene]hydrazinecarbothioamide] | 36.2 ± 0.69 | 81.3 |
| COc1ccc(NC(=S)NN=Cc2ccc(N3CCCC3)cc2)cc1 [Compound 5d, N-(4-Methoxyphenyl)-2-[4-(pyrrolidin-1-yl)benzylidene]hydrazinecarbothioamide] | 12.4 ± 0.48 | 91.1 |
| Cc1ccc(NC(=S)NN=Cc2ccc(N3CCCC3)cc2)cc1 [Compound 5g, 2-[4-(Pyrrolidin-1-yl)benzylidene]-N-(p-tolyl)hydrazinecarbothioamide] | 14.4 ± 0.29 | 89.5 |
| COc1cccc(NC(=S)NN=Cc2ccc(N3CCCC3)cc2)c1 [Compound 5h, N-(3-Methoxyphenyl)-2-[4-(pyrrolidin-1-yl)benzylidene]hydrazinecarbothioamide] | 23.1 ± 0.35 | 86.7 |
| O=[N+]([O-])c1ccc(NC(=S)NN=Cc2ccc(N3CCCC3)cc2)cc1 [Compound 5j, N-(4-Nitrophenyl)-2-[4-(pyrrolidin-1-yl)benzylidene]hydrazinecarbothioamide] | 54.1 ± 0.72 | 74.1 |
| S=C(NN=Cc1ccc(N2CCCC2)cc1)Nc1ccc(Br)cc1 [Compound 5m, N-(4-Bromophenyl)-2-[4-(pyrrolidin-1-yl)benzylidene]hydrazinecarbothioamide] | 16.3 ± 0.26 | 90.8 |
| S=C(NN=Cc1ccc(N2CCCC2)cc1)Nc1cccc(Br)c1 [Compound 5n, N-(3-Bromophenyl)-2-[4-(pyrrolidin-1-yl)benzylidene]hydrazinecarbothioamide] | 22.1 ± 0.37 | 88.2 |
| O=[N+]([O-])c1cccc(NC(=S)NN=Cc2ccc(N3CCCC3)cc2)c1 [Compound 5o, N-(3-Nitrophenyl)-2-[4-(pyrrolidin-1-yl)benzylidene]hydrazinecarbothioamide] | 45.3 ± 0.63 | 75.6 |
| Fc1ccccc1NC(=S)NN=Cc1ccc(N2CCCC2)cc1 [Compound 5q, N-(2-Fluorophenyl)-2-[4-(pyrrolidin-1-yl)benzylidene]hydrazinecarbothioamide] | 35.3 ± 0.59 | 77.3 |

Second part, the compound after the results:

| IC50 [µM] | inhibition at 500 µM [%] | SMILES |
| --- | --- | --- |
| 29.1 ± 0.38 | 83.6 | S=C(NN=Cc1ccc(N2CCCC2)cc1)NC1CCCCC1 [Compound 5a, N-Cyclohexyl-2-[4-(pyrrolidin-1-yl)benzylidene]hydrazinecarbothioamide] |
| 15.3 ± 0.26 | 90.2 | Cc1cccc(C)c1NC(=S)NN=Cc1ccc(N2CCCC2)cc1 [Compound 5e, N-(2,6-Dimethylphenyl)-2-[4-(pyrrolidin-1-yl)benzylidene]hydrazinecarbothioamide] |
| 21.2 ± 0.44 | 86.2 | S=C(NN=Cc1ccc(N2CCCC2)cc1)Nc1ccccc1 [Compound 5f, N-Phenyl-2-[4-(pyrrolidin-1-yl)benzylidene]hydrazinecarbothioamide] |
| 27.5 ± 0.5 | 83.9 | S=C(NCc1ccc(Cl)cc1)NN=Cc1ccc(N2CCCC2)cc1 [Compound 5i, N-(4-Chlorobenzyl)-2-[4-(pyrrolidin-1-yl)benzylidene]hydrazinecarbothioamide] |
| 40.6 ± 0.59 | 76.9 | S=C(NCCN1CCOCC1)NN=Cc1ccc(N2CCCC2)cc1 [Compound 5k, N-(2-Morpholinoethyl)-2-[4-(pyrrolidin-1-yl)benzylidene]hydrazinecarbothioamide] |
| 12.4 ± 0.25 | 91.5 | S=C(NCCc1ccccc1)NN=Cc1ccc(N2CCCC2)cc1 [Compound 5l, N-Phenethyl-2-[4-(pyrrolidin-1-yl)benzylidene]hydrazinecarbothioamide] |
| 48.2 ± 0.6 | 74.6 | S=C(NCc1ccccc1)NN=Cc1ccc(N2CCCC2)cc1 [Compound 5p, N-Benzyl-2-[4-(pyrrolidin-1-yl)benzylidene]hydrazinecarbothioamide] |
| 42.2 ± 0.63 | 79.8 | Cc1ccc(CNC(=S)NN=Cc2ccc(N3CCCC3)cc2)cc1 [Compound 5r, N-(4-Methylbenzyl)-2-[4-(pyrrolidin-1-yl)benzylidene]hydrazinecarbothioamide] |
